Data as given in patent publication US20010016560A1, “Herbicidal compositions” (priority 1998, published 2001).

Legend:
SACOF RB72 454 [1] = experiment: Field test Brazil, crop effect, heavy clay soil (Example 1); assay type: in vivo, ratoon sugarcane
Description: (§1) [0042] The following test was conducted in Brazil: Tebuthiuron (used as the commercial formulation “Combine™”, a suspension concentrate containing […] active ingredient) and 5-cyclopropyl-4-(2-methylsulfonyl-4-trifluoromethyl)benzoylisoxazole (isoxaflutole, hereafter referred to as Compound A), which was formulated as wettable granules, were sprayed alone and in tank mix combination (spray rate 300 l/ha) to a plot 5 meters by 3 meters pre-emergence of the weeds and ratoon sugarcane (varieties RB72 454 and […]). The soil was a heavy clay soil containing 1.8% organic matter, […] (pH 5.3) and had been sown on the same day as application with the weed species (the application was made to the ratoon cane about 90 days after cutting and before re-growth). Visual assessment was made 95 days after treatment in comparison with an untreated control plot. Two replicates were performed.

SACOF RB68 5089 [2] = experiment: as above; assay type: in vivo, ratoon sugarcane
Description: as §1

BRAPL [3] = experiment: Field test Brazil, pre-emergence, light sandy soil (Example 2); assay type: in vivo; conditions: 95 days after treatment vs untreated plot, g/ha: Cpd A 150, Tebuthiuron 500, mix 500+150
Description: as §1
(§2) [0044] The following test was conducted in Brazil following the same procedure as described in Example 1 above but where the soil type was light sandy containing 1.8% organic matter, 82% sand and 13% clay (pH 5.3). Again, two replicates were performed.

ECHCG [4] = experiment: as above; assay type: in vivo; conditions: 95 days after treatment vs untreated plot, g/ha: Cpd A 150, Tebuthiuron 500, mix 500+150
Description: as §1, §2

SIDRH = experiment: as above; assay type: in vivo; conditions: 95 days after treatment vs untreated plot, g/ha: Cpd A 150, Tebuthiuron 500, mix 500+150
Description: as §1, §2

DIGHO [5] = experiment: as above; assay type: in vivo; conditions: 95 days after treatment vs untreated plot, g/ha: Cpd A 150, Tebuthiuron 500, mix 500+150
Description: as §1, §2

ELEIN [6] = experiment: as above; assay type: in vivo; conditions: 95 days after treatment vs untreated plot, g/ha: Cpd A 150, Tebuthiuron 500, mix 500+150
Description: as §1, §2

AMASP [7] = experiment: as above; assay type: in vivo; conditions: 95 days after treatment vs untreated plot, g/ha: Cpd A 150, Tebuthiuron 500, mix 500+150
Description: as §1, §2

SACOF RB72 454 [8] = experiment: Field test Brazil, crop effect, light sandy soil (Example 2); assay type: in vivo, ratoon sugarcane
Description: as §1, §2

SACOF RB68 5089 [9] = experiment: as above; assay type: in vivo, ratoon sugarcane
Description: as §1, §2

BRAPL [10] = experiment: Field test Brazil, pre-emergence, heavy clay soil (Example 1); assay type: in vivo; conditions: 95 days after treatment vs untreated plot, g/ha: Cpd A 150, Tebuthiuron 500, mix 500+150
Description: as §1

ECHCG [11] = experiment: as above; assay type: in vivo; conditions: 95 days after treatment vs untreated plot, g/ha: Cpd A 150, Tebuthiuron 500, mix 500+150
Description: as §1

DIGHO [12] = experiment: as above; assay type: in vivo; conditions: 95 days after treatment vs untreated plot, g/ha: Cpd A 150, Tebuthiuron 500, mix 500+150
Description: as §1

ELEIN [13] = experiment: as above; assay type: in vivo; conditions: 95 days after treatment vs untreated plot, g/ha: Cpd A 150, Tebuthiuron 500, mix 500+150
Description: as §1

PANMA = experiment: as above; assay type: in vivo; conditions: 95 days after treatment vs untreated plot, g/ha: Cpd A 150, Tebuthiuron 500, mix 500+150
Description: as §1

AMASP [14] = experiment: as above; assay type: in vivo; conditions: 95 days after treatment vs untreated plot, g/ha: Cpd A 150, Tebuthiuron 500, mix 500+150
Description: as §1

[15] = pre-emergence, 95 days after treatment vs untreated plot, heavy clay soil, g/ha: Cpd A 150, Tebuthiuron 500, mix 500+150
[16] = pre-emergence, 95 days after treatment vs untreated plot, light sandy soil, g/ha: Cpd A 150, Tebuthiuron 500, mix 500+150

CS(=O)(=O)c1cc(C(F)(F)F)ccc1C(=O)c1cnoc1C1CC1 [Cpd A, 5-cyclopropyl-4-(2-methylsulfonyl-4-trifluoromethyl)benzoylisoxazole]
Visual assessment SACOF RB72 454 (crop) (SACOF RB72 454 [1]; in vivo): 0
Visual assessment SACOF RB68 5089 (crop) (SACOF RB68 5089 [2]; in vivo): 0
Visual assessment BRAPL (BRAPL [3]): 15
Visual assessment ECHCG (ECHCG [4]): 20
Visual assessment SIDRH (SIDRH): 10
Visual assessment DIGHO (DIGHO [5]): 20
Visual assessment ELEIN (ELEIN [6]): 30
Visual assessment AMASP (AMASP [7]): 27.5
Visual assessment SACOF RB72 454 (crop) (SACOF RB72 454 [8]; in vivo): 0
Visual assessment SACOF RB68 5089 (crop) (SACOF RB68 5089 [9]; in vivo): 0
Visual assessment BRAPL (BRAPL [10]): 70
Visual assessment ECHCG (ECHCG [11]): 50
Visual assessment DIGHO (DIGHO [12]): 75
Visual assessment ELEIN (ELEIN [13]): 85
Visual assessment PANMA (PANMA): 85
Visual assessment AMASP (AMASP [14]): 80

CNC(=O)N(C)c1nnc(C(C)(C)C)s1 [Tebuthiuron]
Visual assessment SACOF RB72 454 (crop) (SACOF RB72 454 [1]; [15]): 0
Visual assessment SACOF RB68 5089 (crop) (SACOF RB68 5089 [2]; [15]): 0
Visual assessment BRAPL (BRAPL [3]): 20
Visual assessment ECHCG (ECHCG [4]): 15
Visual assessment SIDRH (SIDRH): 60
Visual assessment DIGHO (DIGHO [5]): 20
Visual assessment ELEIN (ELEIN [6]): 20
Visual assessment AMASP (AMASP [7]): 70
Visual assessment SACOF RB72 454 (crop) (SACOF RB72 454 [8]; [16]): 0
Visual assessment SACOF RB68 5089 (crop) (SACOF RB68 5089 [9]; [16]): 0
Visual assessment BRAPL (BRAPL [10]): 10
Visual assessment ECHCG (ECHCG [11]): 10
Visual assessment DIGHO (DIGHO [12]): 10
Visual assessment ELEIN (ELEIN [13]): 20
Visual assessment PANMA (PANMA): 5
Visual assessment AMASP (AMASP [14]): 75
